Measurements published in patent US10399971B2, “Compound for treating or preventing hyperuricemia or gout” (JIANGSU ATOM BIOSCIENCE AND PHARMACEUTICAL CO., LTD., priority 2015, dated 2019).

Columns and labels:
hURAT1 = target: T1, hURAT1 (Homo sapiens, UniProt Q96S37); assay: Inhibition assay of uric acid transport in HEK293-hURAT1 transfection cell line; format: cell-based; details: read-out: Inhibitory rates of uric acid transport, ±SD (%)
T1 sequence (Q96S37 1-553): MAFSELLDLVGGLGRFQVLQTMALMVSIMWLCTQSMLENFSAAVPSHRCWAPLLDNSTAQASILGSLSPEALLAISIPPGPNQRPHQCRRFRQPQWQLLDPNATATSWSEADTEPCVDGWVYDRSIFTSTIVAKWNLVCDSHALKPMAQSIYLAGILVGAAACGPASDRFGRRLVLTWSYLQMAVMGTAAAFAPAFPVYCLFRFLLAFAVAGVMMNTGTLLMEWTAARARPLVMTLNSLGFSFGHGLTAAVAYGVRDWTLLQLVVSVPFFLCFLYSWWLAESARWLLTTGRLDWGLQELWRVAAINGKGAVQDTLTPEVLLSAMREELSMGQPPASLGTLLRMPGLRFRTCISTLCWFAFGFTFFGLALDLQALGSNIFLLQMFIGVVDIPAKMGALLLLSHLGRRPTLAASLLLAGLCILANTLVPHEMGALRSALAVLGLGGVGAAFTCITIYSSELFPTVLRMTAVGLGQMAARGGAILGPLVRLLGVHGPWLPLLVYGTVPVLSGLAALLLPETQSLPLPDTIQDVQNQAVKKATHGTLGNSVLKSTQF
Method: 2.1 Construction of a HEK293 stable cell line with high expression of hURAT1: The plasmid pCMV6-hURAT1 was transfected into HEK293 cells, then the stable strain was obtained by the G418 (final concentration 500 μg/mL) resistance screening, which is the high expression of hURAT1 transporter membrane protein.
2.2 To a coated 24-well plate was added 200 μL of 0.1 mg/mL poly-lysine per well and the plate was left overnight. Poly-lysine was removed from wells. The wells were cleaned thoroughly with aseptic water and dried for use.
2.3 To the above coated 24 well plate was added HEK293-hURAT1 stable cells (2×10^5 cells per well). The cells was cultured at 37° C. under 5% CO2 for 3 days.
The solution was fully mixed to give HBSS buffer (pH value: 7.4). The buffer was stored at −20° C.
2.5 The HBSS buffer was warmed to 37° C. in a water bath. Washed cells with HBSS twice, added 160 μL of HBSS and 20 μL test compound per well. The final concentration of tested compound per well is 500 nM. The blank control well contains only 180 μL of HBSS without tested compound. The plate was placed at room temperature for 30 min.
2.6 To each well was added 20 μL of 50 μM ^14C-Uric acid. The plate was placed at room temperature for 20 min.
2.7 The solution in each well was removed and the cells in each well were washed with pre-cooled HBSS buffer. To each well was added 0.2 M NaOH to dissolve the cells. The solution containing cell fragments was collected and the right amount of scintillation liquid was added.
The formula for calculating the inhibitory rate of uric acid transport for compounds was shown as below: […]

[1] = tested on: human normal liver cell line L-02; assay: Cytotoxicity test on human normal liver cell line L-02 (Alamar Blue); format: cell-based; details: L02, L-02 cells, 120 h incubation, cell viability, read-out: half inhibitory concentration (IC50) against L-02
Method: (§1) 2.1 The normal liver cell lines L-02 and WRL-68 were cultured with DMEM culture medium (containing 10% of fetal bovine serum, 100 U/mL of penicillin and 0.1 mg/mL of streptomycin) in an incubator under 5% CO2 at 37° C. until the cell density was about 90%, respectively.
(§2) 2.3 Tested compounds and benzbromarone at different concentration gradients were prepared by using the DMEM culture medium and added into wells at 100 μL/well as compounds wells. The DMEM culture medium was added into wells at 100 μL/well without tested compound as negative control wells.
(§3) This 10× Alamar Blue solution was diluted into 1× Alamar Blue solution with phenol red free DMEM culture medium before use.
(§4) 2.5 The cells were washed with PBS (0.1 M, pH=7.4) twice. The Alamar Blue solution was added into wells at 100 μL/well. 100 μL of Alamar Blue solution was added into wells without cells to serve as blank control wells. The 96-well plate was placed in an incubator under 5% CO2 at 37° C. for 3 h. Each concentration of compound was repeated three times during the test.
(§5) The fluorescence value of the cells containing compound is the F(test compound); the fluorescence value of the cells without compound as blank control is the F(blank control); the fluorescent value of the cells from negative control group is F(negative control). The average value and standard deviation of cell viability of three repeated concentrations was calculated by the following formula: […]
(§6) 2.7 The half inhibitory concentration (IC50) of the compound for the cells L-02 and WRL-68 was obtained from the cell viability by Prism Graph software.

[2] = tested on: human normal liver cell line WRL-68; assay: Cytotoxicity test on human normal liver cell line WRL-68 (Alamar Blue); format: cell-based; details: WRL68, WRL-68 cells, 120 h incubation, cell viability, read-out: half inhibitory concentration (IC50) against WRL-68
Method: as §1, §2, §3, §4, §5, §6

hyperuricemia mice = assay: Uric acid excretion test in hyperuricemia mice; format: in vivo, Kunming mice; details: 15 mg/kg oral
Method: Species: Kingming mice (Clean Level); body weights: 25 to 30 g; ages: 4 to 5 weeks; sex: male. These mice were purchased from Shanghai SLAC Laboratory Animal Co., Ltd. Certificate No.: SCXK (HU) 2012-2002. Animal quality certificate number: 2015000522173.
A certain amount of adenine and yeast extract powder was weighted and a certain amount of double distilled water was added. The mixture was stirred at about 60° C. for 40 min to give a suspension, which the concentration of yeast extract is 0.6 g/mL and the concentration of adenine is 12 mg/mL.
A suspension of 20 mg/mL potassium oxonate was prepared by mixing a certain amount of potassium oxonate with 0.5% CMC-Na solution before use.
Male Kunming mice were randomly divided into four groups: blank control group, model group, compound 74 group, and benzbromarone group. Each group has six mice. All mice fasted 2 to 3 h before use. The model group, benzbromarone group, and compound 74 group were orally given a suspension of yeast extract and adenine prepared above to reach the final dosage of 10 g/kg (body weight) of yeast extract and 200 mg/kg (body weight) of adenine, respectively. The blank control group was only given same volume of normal saline orally. After 2.5 h, all mice in compound 74 group and benzbromarone group were given 10 mL/kg of suspension of compound 74 (1.5 mg/mL) and 10 mL/kg of suspension of benzbromarone (1.5 mg/mL), respectively. The blank control group and model group were orally given same volume of 0.5% CMC-Na solution. All animals were treated in the same way for seven days by using administration methods described above. On the last day, after administration of a suspension of yeast extract and adenine for the model group, compound 74 group, and benzbromarone group, all mice in these three groups were given 12.5 mL/kg of potassium oxonate (20 mg/mL) by i.p. The blank control was only given same volume of 0.5% CMC-Na solution by i.p. After 30 min, compound 74 and benzbromarone were administrated orally to the mice at same dosages as above in compound 74 group and benzbromarone group, respectively. The blank control group and model group were orally given same volume of 0.5% CMC-Na solution.
Collection of urine samples: All mice were placed in metabolic cages with normal diet individually after giving test compounds on the last day. 24 h urine was collected and the urine volume was measured. The urine was centrifugated at 3000 rpm for 20 min and the supernatant was collected.
Detection of the concentration of uric acid of mice urine samples: uric acid concentration in samples was detected by using uric acid assay kit (phosphotungstic acid method) followed the procedures described in the instruction.

in vivo = details: both, SD, rat, po
Excerpt: (§7) Rats were randomly divided into group A1, group B1 and blank control group. Each group has 10 of rats with half male and half female.

[3] = Acute toxicity of single oral dose in SD rats
Excerpt: as §7

`CCc1oc2ccccc2c1C(=O)c1cc(Br)c(O)c(Br)c1` [BBR, (3,5-dibromo-4-hydroxyphenyl)(2-ethyl-benzofuran-3-yl)methanone, reference compound] showed an inhibition at 0.5 µM (hURAT1) of 55.6 ± 1.42%, an IC50 [1] of 40.2 µM and an IC50 [2] of 45.5 µM. The “uric acid excretion increased compared with the model group” value (hyperuricemia mice; increase over model group) was “about 25.35%”, the “Changes of uric acid excretion (compared with model group, %)” value (hyperuricemia mice; model group set to 100%) was 125.35% and the “Uric acid in urine for 24 h, ±SD” value (hyperuricemia mice; seven days, 6 mice) was 13.40 ± 1.59 mmol. The MTD at 14 days (in vivo) was 140 mg/kg, the Death rate ([3]; SD rats, single oral dose, 74 at 5.0 g/kg, BBR at 0.14 g/kg, 10 rats per group, 14 days observation) was 0/10 and the “death of rats in pre-experiment of acute toxicity” value ([3]; pre-experiment, compound 74 at 5 g/kg (highest dose), benzbromarone at 0.14 g/kg) was “no death of rats was found”.
